# According to article PMC11240139, “Exploring the antitumor potential of novel quinoline derivatives via tubulin polymerization inhibition in breast cancer; design, synthesis and molecular docking” (RSC Advances, 2024):
# What was measured:
# Assay in all cases: NCI-60 SRB cytotoxicity screen
# Format in all cases: cell-based
# [1] = system: NCI-H226 (non-small cell lung cancer)
# HT29 (colon cancer) = system: HT29 (colon cancer)
# UO-31 (renal cancer) = system: UO-31 (renal cancer)
# [2] = system: NCI/ADR-RES (ovarian cancer)
# OVCAR-8 (ovarian cancer) = system: OVCAR-8 (ovarian cancer)
# SNB-75 (CNS cancer) = system: SNB-75 (CNS cancer)
# A498 (renal cancer) = system: A498 (renal cancer)
# SK-MEL-2 (melanoma) = system: SK-MEL-2 (melanoma)
# [3] = system: A549/ATCC (non-small cell lung cancer)
# ACHN (renal cancer) = system: ACHN (renal cancer)
# TK-10 (renal cancer) = system: TK-10 (renal cancer)
# SF-295 (CNS cancer) = system: SF-295 (CNS cancer)
# SF-539 (CNS cancer) = system: SF-539 (CNS cancer)
# SW-620 (colon cancer) = system: SW-620 (colon cancer)
# HCT-15 (colon cancer) = system: HCT-15 (colon cancer)
# U251 (CNS cancer) = system: U251 (CNS cancer)
# SN12C (renal cancer) = system: SN12C (renal cancer)
# LOX IMVI (melanoma) = system: LOX IMVI (melanoma)
# [4] = Homo sapiens, UO-31, five-dose assay
# [5] = Homo sapiens, five-dose assay, read-out: LC50 (the source's name)
# [6] = Homo sapiens, single dose 10 μM, read-out: growth inhibition (GI%)
# [7] = Homo sapiens, A498, five-dose assay
# [8] = Homo sapiens, SF-295, five-dose assay
# [9] = Homo sapiens, SF-539, five-dose assay
# [10] = Homo sapiens, SW-620, five-dose assay
# [11] = Homo sapiens, HCT-15, five-dose assay
# [12] = Homo sapiens, U-251, U251, five-dose assay
structure (smiles),measurement,setting,value
"CCc1cccc2cc(-c3cc(-c4cc(OC)c(OC)c(OC)c4)[nH]c(=O)c3C#N)c(Cl)nc12 [Compound 4c, 4-(2-Chloro-8-ethylquinolin-3-yl)-2-oxo-6-(3,4,5-trimethoxyphenyl)-1,2-dihydropyridine-3-carbonitrile]",TGI,"[1]; NCI-H226, five-dose assay",32.60 µM
same,growth inhibition (GI%),"[1]; NCI-H226, single dose 10 μM",lethal effect
same,TGI,"HT29 (colon cancer); HT29, five-dose assay",>100 µM
same,GI50,"HT29 (colon cancer); Homo sapiens, HT-29, HT29, five-dose assay",32.1 µM
same,CC50,"HT29 (colon cancer); Homo sapiens, HT-29, HT29, five-dose assay, read-out: LC50 (the source's name)",> 100 µM
same,inhibition at 10 µM,"HT29 (colon cancer); Homo sapiens, HT-29, HT29, single dose 10 μM, read-out: growth inhibition (GI%)",< 10%
same,GI50,UO-31 (renal cancer); [4],12.6 µM
same,LC50 (50% lethal concentration),UO-31 (renal cancer); [4],> 100 µM
same,inhibition at 10 µM,"UO-31 (renal cancer); Homo sapiens, UO-31, single dose 10 μM, read-out: growth inhibition (GI%)",> 100%
same,TGI,"UO-31 (renal cancer); UO-31, five-dose assay",>100 µM
same,growth inhibition (GI%),"UO-31 (renal cancer); UO-31, single dose 10 μM",lethal effect
same,GI50,"[2]; Homo sapiens, five-dose assay",44.9 µM
same,CC50,[2]; [5],> 100 µM
same,inhibition at 10 µM,[2]; [6],59.9%
same,TGI,[2]; five-dose assay,>100 µM
same,GI50,"OVCAR-8 (ovarian cancer); Homo sapiens, OVCAR-8, five-dose assay",18.5 µM
same,CC50,"OVCAR-8 (ovarian cancer); Homo sapiens, OVCAR-8, five-dose assay, read-out: LC50 (the source's name)",> 100 µM
same,inhibition at 10 µM,"OVCAR-8 (ovarian cancer); Homo sapiens, OVCAR-8, single dose 10 μM, read-out: growth inhibition (GI%)",92.1%
same,TGI,"OVCAR-8 (ovarian cancer); OVCAR-8, five-dose assay",93.60 µM
same,inhibition at 10 µM,"SNB-75 (CNS cancer); Homo sapiens, SNB-75, SNB-75, single dose 10 μM, read-out: growth inhibition (GI%)",> 100%
same,GI50,"SNB-75 (CNS cancer); Homo sapiens, SNB-75, five-dose assay",2.38 µM
same,CC50,"SNB-75 (CNS cancer); Homo sapiens, SNB-75, five-dose assay, read-out: LC50 (the source's name)",52.6 µM
same,TGI,"SNB-75 (CNS cancer); SNB-75, five-dose assay",16.90 µM
same,TGI,"A498 (renal cancer); A498, five-dose assay",45.20 µM
same,growth inhibition (GI%),"A498 (renal cancer); A498, single dose 10 μM",lethal effect
same,GI50,A498 (renal cancer); [7],15.8 µM
same,LC50 (concentration killing 50% of cells),A498 (renal cancer); [7],> 100 µM
same,inhibition at 10 µM,"A498 (renal cancer); Homo sapiens, A498, single dose 10 μM, read-out: growth inhibition (GI%)",> 100%
same,GI50,"SK-MEL-2 (melanoma); Homo sapiens, SK-MEL-2, five-dose assay",39.8 µM
same,CC50,"SK-MEL-2 (melanoma); Homo sapiens, SK-MEL-2, five-dose assay, read-out: LC50 (the source's name)",> 100 µM
same,inhibition at 10 µM,"SK-MEL-2 (melanoma); Homo sapiens, SK-MEL-2, single dose 10 μM, read-out: growth inhibition (GI%)",29.8%
same,TGI,"SK-MEL-2 (melanoma); SK-MEL-2, five-dose assay",>100 µM
same,GI50,"[3]; Homo sapiens, five-dose assay",12.2 µM
same,CC50,[3]; [5],> 100 µM
same,inhibition at 10 µM,[3]; [6],88.2%
same,TGI,[3]; five-dose assay,48.70 µM
same,GI50,"ACHN (renal cancer); Homo sapiens, five-dose assay",15.6 µM
same,LC50,"ACHN (renal cancer); Homo sapiens, five-dose assay",61.8 µM
same,inhibition at 10 µM,ACHN (renal cancer); [6],75.7%
same,TGI,ACHN (renal cancer); five-dose assay,31.00 µM
same,GI50,"TK-10 (renal cancer); Homo sapiens, TK-10, five-dose assay",17.5 µM
same,CC50,"TK-10 (renal cancer); Homo sapiens, TK-10, five-dose assay, read-out: LC50 (the source's name)",> 100 µM
same,inhibition at 10 µM,"TK-10 (renal cancer); Homo sapiens, TK-10, single dose 10 μM, read-out: growth inhibition (GI%)",> 100%
same,TGI,"TK-10 (renal cancer); TK-10, five-dose assay",34.50 µM
same,growth inhibition (GI%),"TK-10 (renal cancer); TK-10, single dose 10 μM",lethal effect
same,GI50,SF-295 (CNS cancer); [8],19.4 µM
same,LC50,SF-295 (CNS cancer); [8],> 100 µM
same,inhibition at 10 µM,"SF-295 (CNS cancer); Homo sapiens, SF-295, single dose 10 μM, read-out: growth inhibition (GI%)",96.4%
same,TGI,"SF-295 (CNS cancer); SF-295, five-dose assay",>100 µM
same,GI50,SF-539 (CNS cancer); [9],12 µM
same,LC50 (50% lethal concentration),SF-539 (CNS cancer); [9],51.3 µM
same,inhibition at 10 µM,"SF-539 (CNS cancer); Homo sapiens, SF-539, single dose 10 μM, read-out: growth inhibition (GI%)",> 100%
same,TGI,"SF-539 (CNS cancer); SF-539, five-dose assay",24.80 µM
same,growth inhibition (GI%),"SF-539 (CNS cancer); SF-539, single dose 10 μM",lethal effect
same,GI50,SW-620 (colon cancer); [10],27.5 µM
same,"LC50 (lethal concentration, 50% net cell kill)",SW-620 (colon cancer); [10],> 100 µM
same,inhibition at 10 µM,"SW-620 (colon cancer); Homo sapiens, SW-620, single dose 10 μM, read-out: growth inhibition (GI%)",17.4%
same,TGI,"SW-620 (colon cancer); SW-620, five-dose assay",>100 µM
same,TGI,"HCT-15 (colon cancer); HCT-15, five-dose assay",>100 µM
same,GI50,HCT-15 (colon cancer); [11],27.6 µM
same,LC50 (concentration causing 50% net cell kill),HCT-15 (colon cancer); [11],> 100 µM
same,inhibition at 10 µM,"HCT-15 (colon cancer); Homo sapiens, HCT-15, single dose 10 μM, read-out: growth inhibition (GI%)",35.8%
same,GI50,U251 (CNS cancer); [12],10.8 µM
same,LC50 (concentration killing 50% of cells),U251 (CNS cancer); [12],74.9 µM
same,inhibition at 10 µM,"U251 (CNS cancer); Homo sapiens, U-251, U251, single dose 10 μM, read-out: growth inhibition (GI%)",> 100%
same,TGI,"U251 (CNS cancer); U251, five-dose assay",28.40 µM
same,growth inhibition (GI%),"U251 (CNS cancer); U251, single dose 10 μM",lethal effect
same,GI50,"SN12C (renal cancer); Homo sapiens, five-dose assay",10.3 µM
same,LC50 (concentration killing 50% of cells),"SN12C (renal cancer); Homo sapiens, five-dose assay",61.8 µM
same,inhibition at 10 µM,SN12C (renal cancer); [6],> 100%
same,TGI,SN12C (renal cancer); five-dose assay,25.20 µM
same,growth inhibition (GI%),SN12C (renal cancer); single dose 10 μM,lethal effect
same,GI50,"LOX IMVI (melanoma); Homo sapiens, five-dose assay",13.5 µM
same,CC50,LOX IMVI (melanoma); [5],81.3 µM
same,inhibition at 10 µM,LOX IMVI (melanoma); [6],91.6%
same,TGI,LOX IMVI (melanoma); five-dose assay,33.20 µM
